Measurements: article PMC6881810, “Trichoderma reesei Dehydrogenase, a Pyrroloquinoline Quinone-Dependent Member of Auxiliary Activity Family 12 of the Carbohydrate-Active Enzymes Database: Functional and Structural Characterization” (Applied and Environmental Microbiology, 2019)

Molecular target: T1, TrAA12 (Trichoderma reesei, UniProt G0RPY6)
T1 construct: gene AA12
Experiment: cytochrome c reduction at […] nm, Michaelis-Menten nonlinear fit
Assay type: biochemical
Conditions: 50 uM cytochrome c, 4 uM PQQ, 1 mM CaCl2, 50 mM sodium acetate pH 5.5, 40 C; full cofactor occupancy assumed

T1 sequence (G0RPY6 24-430): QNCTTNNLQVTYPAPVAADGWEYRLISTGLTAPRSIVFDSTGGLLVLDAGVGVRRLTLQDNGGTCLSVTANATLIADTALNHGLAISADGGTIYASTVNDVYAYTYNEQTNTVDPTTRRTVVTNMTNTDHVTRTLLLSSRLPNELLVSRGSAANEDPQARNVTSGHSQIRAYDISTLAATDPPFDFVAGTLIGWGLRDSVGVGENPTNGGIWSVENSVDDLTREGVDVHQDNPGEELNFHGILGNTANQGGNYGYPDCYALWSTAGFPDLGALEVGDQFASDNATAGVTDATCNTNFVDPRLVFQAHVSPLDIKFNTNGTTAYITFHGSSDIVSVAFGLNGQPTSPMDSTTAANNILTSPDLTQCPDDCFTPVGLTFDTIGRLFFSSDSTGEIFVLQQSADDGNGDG

With `C[C@@H]1OC(O)[C@@H](O)[C@H](O)[C@@H]1O` (stereo partly drawn) [L-fucose] as the compound, how does the Km read?
The Km was 99.9 ± 9.7 mM.
